Measurements as given in ChEMBL document CHEMBL2331373, “Synthesis and antitubercular activity of amino alcohol fused spirochromone conjugates” (2013).
Converted amounts (≈) assume the structure as drawn.

Test system: Mycobacterium tuberculosis
Assay: Antimycobacterial activity against Mycobacterium tuberculosis H37Rv ATCC 27294 by agar dilution method
Type: functional

| SMILES | MIC [µg/mL] |
| --- | --- |
| COc1ccc(NCC(O)COc2ccc3c(c2)OC2(CCCC2)CC3=O)cc1 (stereo not drawn) | 25 (≈ 62.9 µM) |
| CC(C)c1ccc(NCC(O)COc2ccc3c(c2)OC2(CCN(C(=O)OC(C)(C)C)CC2)CC3=O)cc1 (stereo not drawn) | 12.5 (≈ 23.8 µM) |
| Cc1ccccc1NCC(O)COc1ccc2c(c1)OC1(CCCC1)CC2=O (stereo not drawn) | 12.5 (≈ 32.8 µM) |
| O=C1CC2(CCCC2)Oc2cc(OCC(O)CNc3ccccc3Cl)ccc21 (stereo not drawn) | 6.25 (≈ 15.6 µM) |
| CC(C)c1ccccc1NCC(O)COc1ccc2c(c1)OC1(CCCC1)CC2=O (stereo not drawn) | 6.25 (≈ 15.3 µM) |
| COc1ccccc1NCC(O)COc1ccc2c(c1)OC1(CCCC1)CC2=O (stereo not drawn) | 12.5 (≈ 31.4 µM) |
| O=C1CC2(CCCC2)Oc2cc(OCC(O)CNc3cccc(F)c3)ccc21 (stereo not drawn) | 3.13 (≈ 8.12 µM) |
| CC(C)c1ccc(NCC(O)COc2ccc3c(c2)OC2(CCCC2)CC3=O)cc1 (stereo not drawn) | 6.25 (≈ 15.3 µM) |
| O=C1CC2(CCCC2)Oc2cc(OCC(O)CNc3ccc([N+](=O)[O-])cc3O)ccc21 (stereo not drawn) | 6.25 (≈ 14.6 µM) |
| COc1ccc(CNCC(O)COc2ccc3c(c2)OC2(CCCC2)CC3=O)cc1 (stereo not drawn) | 12.5 (≈ 30.4 µM) |
| O=C1CC2(CCCC2)Oc2cc(OCC(O)CN3CCOCC3)ccc21 (stereo not drawn) | > 25 |
| O=C1CC2(CCCCC2)Oc2cc(OCC(O)CNc3ccccc3)ccc21 (stereo not drawn) | 12.5 (≈ 32.8 µM) |
| Cc1ccccc1NCC(O)COc1ccc2c(c1)OC1(CCCCC1)CC2=O (stereo not drawn) | 6.25 (≈ 15.8 µM) |
| COc1ccccc1NCC(O)COc1ccc2c(c1)OC1(CCCCC1)CC2=O (stereo not drawn) | 12.5 (≈ 30.4 µM) |
| COc1ccc(NCC(O)COc2ccc3c(c2)OC2(CCCCC2)CC3=O)cc1 (stereo not drawn) | 12.5 (≈ 30.4 µM) |
| CC(C)c1ccc(NCC(O)COc2ccc3c(c2)OC2(CCCCC2)CC3=O)cc1 (stereo not drawn) | 6.25 (≈ 14.8 µM) |
| CC(C)(C)OC(=O)N1CCC2(CC1)CC(=O)c1ccc(OCC(O)CNc3ccccc3)cc1O2 (stereo not drawn) | > 25 |
| Cc1ccccc1NCC(O)COc1ccc2c(c1)OC1(CCN(C(=O)OC(C)(C)C)CC1)CC2=O (stereo not drawn) | 25 (≈ 50.3 µM) |
| COc1ccccc1NCC(O)COc1ccc2c(c1)OC1(CCN(C(=O)OC(C)(C)C)CC1)CC2=O (stereo not drawn) | 25 (≈ 48.8 µM) |
| COc1ccc(NCC(O)COc2ccc3c(c2)OC2(CCN(C(=O)OC(C)(C)C)CC2)CC3=O)cc1 (stereo not drawn) | > 25 |
| O=C1CC2(CCCC2)Oc2cc(OCC(O)CNc3ccccc3)ccc21 (stereo not drawn) | 25 (≈ 68 µM) |
| CC[C@@H](CO)NCCN[C@@H](CC)CO [ETHAMBUTOL] | 1.56 (≈ 7.64 µM) |
| CO[C@H]1/C=C/O[C@@]2(C)Oc3c(C)c(O)c4c(O)c(c(/C=N/N5CCN(C)CC5)c(O)c4c3C2=O)NC(=O)/C(C)=C\C=C\[C@H](C)[C@H](O)[C@@H](C)[C@@H](O)[C@@H](C)[C@H](OC(C)=O)[C@@H]1C [RIFAMPIN] | 0.2 (≈ 0.243 µM) |
